Experiments:
Assay type in all cases: biochemical
Details in all cases: HeLa S3 lysate, sfGFP/mCherry ratio, 2 hrs at 30° C.
MYC = test: In vitro transcription-translation (IVTT) reporter assay, MYC test sequence
Text: (§1) All reporter constructs have been cloned into the pT7CFE1-CHis plasmid (ThermoFisher #88860) using Gibson assembly procedures (NEB #E2611L). The parental pT7CFE1-CHis plasmid contains an EMCV IRES at the 5′UTR for translation initiation, a multiple-cloning site (MCS) for gene insertion, an optional C-terminal His-epitope tag, and polyA sequence in the 3′UTR to regulate mRNA stability. All reporters are designed to be inserted at the MCS to include a red fluorescent protein (mCherry), P2A self-cleaving peptide which releases the preceding mCherry protein product, and a fusion open reading frame containing a 3×FLAG epitope, a peptide sequence of interest (TEST), and green fluorescent protein (sfGFP).
(§2) Construct Plasmid Preparation: All plasmids are isolated from MACH1 cells (ThermoFisher) grown overnight in ampicillin-containing luria broth, and purified using ZymoPure Express Plasmid Midiprep Kit (Zymo Research). Constructs are sequenced verified and diluted to a working concentration of 110 ng/μL.
(§3) HeLa S3 Lysate Preparation: HeLa S3 cell pellets are acquired from Ipracell/Ipratech (Belgium) and shipped as 4 mL frozen cell pellets on dry ice for storage at −80° C. until use. The procedure for lysate preparation is as follows. Prepare 1× Lysis Buffer, cold and stored on ice:
(§4) Each preparation takes 8 cell pellets (4 ml packed volume each, approximately 1.0×10^9 cells per pellet). Thaw cell pellets from −80° C. on ice for 90 mins. Lay pellets horizontally on top of the ice and rotate every 30 mins to ensure even thawing. Once thawed, add 4 mL of cold lysis buffer to each pellet, and using a serological pipet, gently pipet up and down to break up clumps. Incubate resuspended cells in ice for an additional 30 mins (plunged into ice). During 30 min incubation, rinse and RNase-zap (Ambion) glass dounces (use loose pestle “A”), gently dry and place on ice until needed. Prepare RNase-free Eppendorf tubes for spinning and for batch storage. Add batch labels to 1.5-1.7 mL RNase-free microcentrifuge tubes (labeling scheme below). Each batch will have an extra 1.5-1.7 mL RNase-free microcentrifuge tube for 40 μL of lysate, label the top of this tube (labeling scheme below). After 30 min incubation, transfer all 8 mL of cell pellet to dounce. Cell lysis is complete after douncing 100 times. Aliquot cell lysis into 1.5-1.7 mL temporary-microcentrifuge tubes. Place tubes in centrifuge with “fins” out, and spin at 1,200 xg for 5 mins. After the first spin use a 1 mL pipet to resuspend each tube and repeat spin. This acts as an additional lysis step, is more vigorous and increases lysate yield. During second spin get liquid N2 and a fresh conical tube on ice.
(§5) After spin is complete, transfer supernatant (lysate) from microcentrifuge tubes into the 50 mL conical tube and keep on ice. Repeat steps 10-14 for all other cell pellets until completed. Once all cell lysate has been transferred to the 50 mL conical tube pipet to mix so the solution is homogenous. Transfer 1 mL of lysate into batch-labeled microcentrifuge tubes and flash freeze in liquid nitrogen. Be sure to pipet up and down to mix throughout transfer step. Place all tubes in the […] for long-term storage.
(§6) In vitro transcription-translation assay setup: Each assay includes a master mix containing lysate and shared components, a 96-well plate containing compound titrations for testing, a 96-well DNA plate with reporter constructs to be tested, 96-well skirted PCR plates, and 96-well flat-bottom, black, fluorescent assay plates. […]

KRAS G12D = test: In vitro transcription-translation (IVTT) reporter assay, KRAS G12D test sequence
Text: as §1, §2, §3, §4, §5, §6

ALK = test: In vitro transcription-translation (IVTT) reporter assay, ALK test sequence
Text: as §1, §2, §3, §4, §5, §6

Compound	IC50 (MYC) [µM]	IC50 (KRAS G12D) [µM]	IC50 (ALK) [µM]
C=C(F)C(=O)O[C@@H]1[C@@H](O)CN[C@@H]1Cc1ccc(OC)cc1 [V0081, (2R,3S,4S)-4-hydroxy-2-[(4-methoxyphenyl)methyl]pyrrolidin-3-yl 2-fluoroprop-2-enoate]	> 30	> 30	> 30
COc1ccc(C[C@H]2NC[C@H](O)[C@H]2OC(=O)c2ccc(C(=O)C(F)(F)F)cc2)cc1 [V0092, (2R,3S,4S)-4-hydroxy-2-[(4-methoxyphenyl)methyl]pyrrolidin-3-yl 4-(2,2,2-trifluoroacetyl)benzoate]	> 30	> 30	> 30
COc1ccc(C[C@H]2NC[C@H](O)[C@H]2OC(=O)C2COC2)cc1 [V0106, (2R,3S,4S)-4-hydroxy-2-[(4-methoxyphenyl)methyl]pyrrolidin-3-yl oxetane-3-carboxylate]	10 to 20	20 to 30	< 10
COc1ccc(C[C@H]2NC[C@H](O)[C@H]2OC(=O)C2CNC2)cc1 [V0107, (2R,3S,4S)-4-hydroxy-2-[(4-methoxyphenyl)methyl]pyrrolidin-3-yl azetidine-3-carboxylate]	> 30	> 30	20 to 30
COc1ccc(C[C@H]2NC[C@H](O)[C@H]2OC(=O)C2CC3(CNC3)C2)cc1 [V0108, (2R,3S,4S)-4-hydroxy-2-[(4-methoxyphenyl)methyl]pyrrolidin-3-yl 2-azaspiro[3.3]heptane-6-carboxylate]	> 30	> 30	–
COc1ccc(C[C@H]2NC[C@H](O)[C@H]2OC(=O)Cc2ccccc2)cc1 [V0110, (2R,3S,4S)-4-hydroxy-2-[(4-methoxyphenyl)methyl]pyrrolidin-3-yl 2-phenylacetate]	< 10	< 10	–
COc1ccc(C[C@H]2NC[C@H](O)[C@H]2OC(=O)CC2COC2)cc1 [V0111, (2R,3S,4S)-4-hydroxy-2-[(4-methoxyphenyl)methyl]pyrrolidin-3-yl 2-(oxetan-3-yl)acetate]	< 10	< 10	< 10
COc1ccc(C[C@H]2NC[C@H](O)[C@H]2OC(=O)CC2CC2)cc1 [V0113, (2R,3S,4S)-4-hydroxy-2-[(4-methoxyphenyl)methyl]pyrrolidin-3-yl 2-cyclopropylacetate]	< 10	< 10	< 10
COc1ccc(C[C@H]2NC[C@H](O)[C@H]2OC(=O)CC[C@@H]2NC(=O)CNC2=O)cc1 [V000144, (2R,3S,4S)-4-hydroxy-2-[(4-methoxyphenyl)methyl]pyrrolidine-3-yl 3-[(2S)-3,6-dioxopiperazin-2-yl]propanoate]	< 10	> 30	< 10
COc1ccc(C[C@H]2NC[C@H](O)[C@H]2OC(=O)c2ccc3onc(N)c3c2)cc1 [V000148, (2R,3S,4S)-4-hydroxy-2-[(4-methoxyphenyl)methyl]pyrrolidin-3-yl 3-amino-1,2-benzoxazole-5-carboxylate]	> 30	> 30	> 30
COc1ccc(C[C@H]2NC[C@H](O)[C@H]2OC(=O)C2CN(Cc3ccccc3)C2)cc1 [V000173, (2R,3S,4S)-4-hydroxy-2-[(4-methoxyphenyl)methyl]pyrrolidin-3-yl 1-benzylazetidine-3-carboxylate]	> 30	> 30	> 30
COc1ccc(C[C@H]2NC[C@H](O)[C@H]2OC(=O)C2(OCc3ccccc3)CNC2)cc1 [V000192, (2R,3S,4S)-4-hydroxy-2-(4-methoxybenzyl) pyrrolidin-3-yl 3-(benzyloxy)azetidine-3-carboxylate]	> 30	> 30	> 30
COc1ccc(C[C@H]2NC[C@H](O)[C@H]2OC(=O)[C@H]2CN(Cc3ccccc3)CC23CNC3)cc1 [V186718, (2R,3S,4S)-4-hydroxy-2-[(4-methoxyphenyl)methyl]pyrrolidin-3-yl (8R)-6-benzyl-2,6-diazaspiro[3.4]octane-8-carboxylate]	–	> 30	> 30
COc1ccc(C[C@H]2NC[C@H](O)[C@H]2OC(=O)C2CCOCC2)cc1 [V186763, (2R,3S,4S)-4-hydroxy-2-[(4-methoxyphenyl)methyl]pyrrolidin-3-yl oxane-4-carboxylate]	–	> 30	> 30
COc1ccc(C[C@H]2NC[C@H](O)[C@H]2OC(=O)C2CC(O)C2)cc1 (stereo partly shown) [V186765]	< 10	10 to 20	–
COc1ccc(C[C@H]2NC[C@H](O)[C@H]2OC(=O)C2CCCS2)cc1 (stereo partly drawn) [V186774, (2R,3S,4S)-4-hydroxy-2-[(4-methoxyphenyl)methyl]pyrrolidin-3-yl thiolane-2-carboxylate]	20 to 30	> 30	–
CC(=O)O[C@@H]1[C@@H](O)CN[C@@H]1Cc1ccc(-c2ccccc2)cc1 [V186811]	< 10	< 10	–
COc1ccc(C[C@H]2NC[C@H](O)[C@H]2OC(=O)[C@H]2CC[C@@H](O)CC2)cc1 [V186822, (2R,3S,4S)-4-hydroxy-2-[(4-methoxyphenyl)methyl]pyrrolidin-3-yl (1 s,4 s)-4-hydroxy cyclohexane-1-carboxylate]	–	> 30	–
COc1ccc(C[C@H]2NC[C@H](O)[C@H]2OC(=O)C2CSSC2)cc1 [V186868, (2R,3S,4S)-4-hydroxy-2-[(4-methoxyphenyl)methyl]pyrrolidin-3-yl 1,2-dithiolane-4-carboxylate; trifluoroacetic acid]	–	> 30	> 30
COc1ccc(C[C@H]2NC[C@H](O)[C@H]2OC(=O)CCC2C(=O)N(C)CC(=O)N2C)cc1 (stereo partly drawn) [V186871, (2R,3S,4S)-4-hydroxy-2-[(4-methoxyphenyl)methyl]pyrrolidin-3-yl 3-(1,4-dimethyl-3,6-dioxopiperazin-2-yl)propanoate; trifluoroacetic acid]	20 to 30	> 30	–
COc1ccc(C[C@H]2NC[C@H](O)[C@H]2OC(=O)Cc2ccc(F)cc2)cc1 [V187054, (2R,3S,4S)-4-hydroxy-2-[(4-methoxyphenyl)methyl]pyrrolidin-3-yl 2-(4-fluorophenyl) acetate]	< 10	< 10	–
COc1ccc(C[C@H]2NC[C@H](O)[C@H]2OC(=O)CN2CC3(C2)CC(F)(F)C3)cc1 [V187067, (2R,3S,4S)-4-hydroxy-2-[(4-methoxyphenyl)methyl]pyrrolidin-3-yl 2-{6,6-difluoro-2-azaspiro[3.3]heptan-2-yl}acetate]	–	10 to 20	< 10
COc1ccc(C[C@H]2NC[C@H](O)[C@H]2OC(=O)Cc2ccc(F)c(Cl)c2)cc1 [V187164, (2R,3S,4S)-4-hydroxy-2-[(4-methoxyphenyl)methyl]pyrrolidin-3-yl 2-(3-chloro-4-fluorophenyl)acetate; trifluoroacetic acid]	< 10	< 10	–
COc1ccc(C[C@H]2NC[C@H](O)[C@H]2OC(=O)COC2CC2)cc1 [V187169, (2R,3S,4S)-4-hydroxy-2-[(4-methoxyphenyl)methyl]pyrrolidin-3-yl 2-cyclopropoxyacetate; trifluoroacetic acid]	< 10	< 10	–
COc1ccc(C[C@H]2NC[C@H](O)[C@H]2OC(=O)COC2CC(F)(F)C2)cc1 [V187171, (2R,3S,4S)-4-hydroxy-2-[(4-methoxyphenyl)methyl]pyrrolidin-3-yl 2-(3,3-difluorocyclobutoxy)acetate; trifluoroacetic acid]	–	< 10	< 10
COc1ccc(C[C@H]2NC[C@H](O)[C@H]2OC(=O)CNc2c(NCc3ccccc3)c(=O)c2=O)cc1 [V187517, (2R,3S,4S)-4-hydroxy-2-[(4-methoxyphenyl)methyl]pyrrolidin-3-yl 2-{[2-(benzylamino)-3,4-dioxocyclobut-1-en-1-yl]amino}acetate; trifluoroacetic acid]	–	20 to 30	< 10
